Measurements taken from patent EP0133259A2, “Aminoalkyl-substituted benzene derivatives, process for production thereof, and pharmaceutical composition thereof” (KOWA COMPANY, LTD., priority 1983, dated 1985).
Structures can show the parent of a compound that is named as a salt.

How the values were obtained:
[1] = system: Chloroform-Induced Arrhythmia; assay: Activity on chloroform-induced arrhythmia; type: in vivo, ICR-strain mice; settings: 100 mg/kg orally; for Antiarrhythmic activity: Rate of onset of VF / Antiarrhythmic activity: Rate of onset of VT: 10 mice per group; for Antiarrhythmic activity: Rate of onset of VF: ventricular fibrillation after chloroform vapor; for Antiarrhythmic activity: Rate of onset of VT: ventricular tachycardia after chloroform vapor; for Antiarrhythmic activity: Duration of activity: relative to the duration time of Lidocaine (+)
Protocol: Activity on Chloroform-Induced Arrhythmia:-ICR-strain mice having a body weight of 20 to 30 g (10 per group) were used, and the test compound was administered orally in a dose of 100 mg/kg. The mice were put in a 1-liter beaker, and observed for 20 minutes for their symptoms or conditions. Then, they were placed in a vessel saturated with a vapor of chloroform, and the time which elapsed until the animals ceased to breathe was measured. After the stopping of the breathing, the mice were taken out from the vessel and their cardiograms were taken. The rates of onset of ventricular tachycardia (VT) and ventricular fibrillation (VF) and their conditions were observed. The duration of activity was determined by using as a standard the time during which the mice were put in the chloroform- saturated vessel. […] Lidocaine was used as a comparative drug.

blood pressure = assay: Hypotensive action (average blood pressure via carotid cannula, conscious animals); type: in vivo, Mice
Protocol: Hypotensive action:- • Mice having a body weight of about 30 g (5 per group) were used. Under anaesthesia with pentobarbital, the carotid was […] from each animal. A cannula was inserted into the animal and connected to a pressure transducer. A tracheal cannula was applied, and the animal was fixed on its back. After the animals awoke from anesthesia, their average blood pressures were measured by the pressure transducer.
The drug was orally administered in a dose of 30 mg/kg, and changes in the blood pressure were measured. Physiological saline was administered to a control group.
The drug used in Test Example 2 was the compound prepared in Example 6.

Compound	Antiarrhythmic activity: Rate of onset of VF [1]	Antiarrhythmic activity: Rate of onset of VT [1]	Antiarrhythmic activity: Duration of activity [1]	Average blood pressure (blood pressure; 30 mg/kg orally, 10 minutes after the administration)	Average blood pressure (blood pressure; 30 mg/kg orally, 30 minutes after the administration)	Average blood pressure (blood pressure; 30 mg/kg orally, 60 minutes after the administration)	Average blood pressure (blood pressure; 30 mg/kg orally, 120 minutes after the administration)	Average blood pressure (blood pressure; before administration, 5 mice per group) [mmHg]	Condition ([1]; symptoms observed for 20 minutes, indicated when the same tendency was seen in all subjects)
COc1ccc(OCC(F)(F)F)cc1NC(=O)CC(C)N (stereo not drawn) [Example 3, 3-Amino-2'-methoxy-5'-(2,2,2-trifluoroethoxy)-butyranilide-hemifumarate]	0/10	2/10	+++	–	–	–	–	–	–
COc1ccc(OCCO[N+](=O)[O-])cc1OCC(C)N (stereo not drawn) [Example 4, 1-[2-Methoxy-5-(2-nitroxyethoxy)phenoxy]-2-propanamine.maleate]	0/10	4/10	++	–	–	–	–	–	–
Cc1cc(OCCO[N+](=O)[O-])cc(C)c1NC(=O)C(C)N (stereo not drawn) [Example 6, 2-Amino-2',6'-dimethyl-4'-(2-nitroxyethoxy)-propionanilide·hydrochloride]	0/10	1/10	++	73.3 ±8.5 (*) mmHg	76.4 ±7.8 (*) mmHg	77.4 ±8.1 (*) mmHg	80.3 ±8.0 (**) mmHg	86.3 ±6.8	–
Cc1ccc(OCCO[N+](=O)[O-])cc1NC(=O)CC(C)N (stereo not drawn) [Example 22, 3-Amino-2'-methyl-5'-(2-nitroxyethoxy)butyr.- anilide-hydrochloride]	0/10	0/10	++	–	–	–	–	–	–
CC(N)C(=O)Nc1cc(OCCO[N+](=O)[O-])ccc1F (stereo not drawn) [Example 24, 2-Amino-2'-fluoro-5'-(2-nitroxyethoxy)propionanilide]	0/10	2/10	+	–	–	–	–	–	–
Cc1ccc(OCC(F)(F)F)cc1NC(=O)C(C)N (stereo not drawn) [Example 38, 2-Amino-2'-methyl-5'-(2,2,2-trifluoroethoxy)-propionanilide]	2/10	5/10	+	–	–	–	–	–	–
Cc1ccc(OCC(F)(F)F)cc1NC(=O)CC(C)N (stereo not drawn) [Example 40, 3-Amino-2'-methyl-5'-(2,2,2-trifluoroethoxy)-butyranilide·hydrochloride]	0/10	0/10	+++	–	–	–	–	–	–
Cc1cc(OCC(F)(F)F)cc(C)c1NC(=O)C(C)N (stereo not drawn) [Example 41, 2-Amino-2',6^1-dimethyl-4^1-(2,2,2-trifluoroethoxy)propionanilide·hydrochloride]	1/10	0/10	+++	–	–	–	–	–	–
CCN(CC)CC(=O)Nc1c(C)cccc1C [Lidocaine, reference compound]	2/10	0/10	+	–	–	–	–	–	Weak sedation
